{"source": "patent US10233161B2", "about": "“Pharmaceutical compositions and salts of a 1,2,4-oxadiazole benzoic acid” (PTC Therapeutics, Inc., priority 2014, dated 2019)", "key": {"[1]": {"experiment": "Comparative equilibrium solubility study of micronized and non-micronized Compound 1", "format": "physicochemical", "method": "Objective: The purpose of this study was to evaluate the solubility of micronized and non-micronized Compound 1. The solubility study was conducted in two representative media in pH 1 (0.1 N HCl with 0.5% sodium lauryl sulfate) and in pH 7.4 (0.1M phosphate buffered saline). The experiment further compared the initial rate of dissolution and equilibrium solubilities of micronized and non-micronized Compound 1 over a period of time.\nSolubility measurement procedure comprised the steps of: 1) weighing and mixing approximately 100 mg of micronized Compound 1 and 100 mL of 0.1N HCl with 0.5% SLS into amber jar 1; 2) weighing and mixing approximately 100 mg of micronized Compound 1 and 100 mL of PBS into amber jar 2; 3) weighing and mixing approximately 100 mg of non-micronized Compound 1 and 100 mL of 0.1N HCl with 0.5% SLS into amber jar 3; 4) weighing and mixing approximately 100 mg of non-micronized Compound 1 and 100 mL of PBS into amber jar 4; 5) mixing all samples in their respective amber jars using a multi purpose rotator for 2 hours; 4) sampling at 5 minutes, 10 minutes, 30 minutes, 60 minutes, 90 minutes, 120 minutes; 5) filtering the samples and 6) analyzing the filtrates using HPLC. For each time point, 10 mL of sample was drawn using a 10 mL syringe with a needle attached filter and using a syringe-top 0.45 μm PTFE syringe filter. The first 9 mL of the samples collected were put back into the original amber jar and then remaining 1 mL was transferred to HPLC vial for analysis."}, "[2]": {"tested_on": "nonsense mutation in the mouse PAX6 gene", "experiment": "Nonsense mutation mouse model of aniridia (PAX6^Sey+/−)", "format": "in vivo", "method": "Compound 1 was administered subcutaneously to PAX6 mutant and wild-type mice for 10 days (Postnatal Day 4-14) or administered topically as an ophthalmic suspension formulation (0.9% sodium chloride, 1% Tween 80, 1% powdered Compound 1, 1% carboxymethylcellulose), twice per day for 46 days (Postnatal Day 14-60). […] In the untreated mutant mouse group, progressive in-folding of the retina and abnormally small lenses was observed.\n(§1) Additional successful results were achieved after topical administration of Compound 1 directly into the eye as an ophthalmic suspension formulation (0.9% sodium chloride, 1% Tween 80, 1% powdered Compound 1, 1% carboxymethylcellulose). The lens and retinal defects, observed in the untreated eyes, reversed in the Compound 1-treated mutant mice and closely resembled wild-type mice (FIG. 36B). […] Treatment with Compound 1 caused an increase in the PAX6 protein by 90% in the corneal and retinal epithelium protein lysates compared to wild-type mice (FIG. 36C) as measured by enzyme-linked immunosorbent assay (ELISA).\nAs a test for effects on visual acuity in the mice, the optokinetic tracking response was measured, which is a behavioural response mediated through the retina-brain circuitry."}, "[3]": {"tested_on": "splice-site mutation in PAX6 (PAX6^Sey-1Neu)", "experiment": "Mouse model containing a splice-site mutation in PAX6 (PAX6^Sey-1Neu)", "format": "in vivo", "source_text": "as §1"}, "[4]": {"settings": "subcutaneous, 10 days (Postnatal Day 4-14), PAX6 mutant mice"}, "[5]": {"settings": "topical 1% ophthalmic suspension"}}, "data": [{"compound": "O=C(O)c1cccc(-c2noc(-c3ccccc3F)n2)c1", "note": "[Compound 1, 3-[5-(2-fluoro-phenyl)-[1,2,4]oxadiazol-3-yl]-benzoic acid]", "values": [{"measurement": "Time at which solubility equilibrium was reached", "setting": "[1]; pH 1 media", "result": "approximately 30 minutes"}, {"measurement": "Time at which equilibrium solubility was reached", "setting": "[1]; pH 7.4 media", "result": "approximately 2 hours"}, {"measurement": "Optokinetic tracking response (visual acuity)", "setting": "[2]; spatial frequency threshold, treated mutant mice", "result": "significant improvement in the spatial frequency threshold"}, {"measurement": "Increase of the size of the lens", "setting": "[2]; [4]", "result": 70, "unit": "%"}, {"measurement": "Retinal in-folding", "setting": "[2]; [4]", "result": "corrected the retinal in-folding"}, {"measurement": "Disease progression and malformation", "setting": "[2]; summary for the aniridia model", "result": "inhibited disease progression and reversed malformation in the cornea, lens and retina"}, {"measurement": "Histological examination of the cornea", "setting": "[2]; [5]", "result": "decreased corneal thickening"}, {"measurement": "Retina response to light stimulation", "setting": "[2]; [5]", "result": "increased response to light stimulation"}, {"measurement": "Lens and retinal defects", "setting": "[2]; topical 1% ophthalmic suspension, twice per day, Postnatal Day 14-60", "result": "reversed"}, {"measurement": "Increase in the PAX6 protein", "setting": "[2]; topical 1% ophthalmic suspension, corneal and retinal epithelium protein lysates, ELISA", "result": 90, "unit": "%"}, {"measurement": "Response to therapy", "setting": "[3]", "result": "did not show a response"}]}]}
